Measurements taken from patent US12227520B2 (priority 2019, dated 2025).
Like-named read-outs stand apart in the source and are kept apart here.

Columns and labels:
pLai RLuc reporter virus = test: microbe, parasite or virus in culture; format: cell-based, HIV; conditions: Human immunodeficiency virus 1, 72 h
Method: To quantify the amount of protein binding to human serum, compounds were serially diluted (1:3) in DMSO and acoustically transferred onto 384-well assay plates via a Labcyte ECHO robot. Each plate contained up to 8 test compounds, including negative and positive controls, (DMSO, 5 μM AZT respectively). Assay plates were prepared in duplicate, and tested in either CCM (cell culture media) or HS/CCM (human serum/cell culture media). MT-4 cells were first pre-infected with pLai RLuc reporter virus for 2 h at 37° C., then further diluted in either CCM (RPMI media, 10% FBS, 1% P/S) or HS/CCM (RPMI media, 10% FBS, 50% HS, 1% P/S), and subsequently added to each plate using a Biotek Micro Flow dispenser. After a 72-h incubation in a humidified and temperature controlled incubator (37° C.), Renilla Glo (Promega) was added to all assay plates and chemiluminescence read using an Envision plate-reader. […] To determine the amount of protein binding, EC50 fold shifts (or EC50 shifts) were calculated by dividing EC50 (HS/CCM)/EC50 (CCM).

HIV-1 (IIIB) = test: Antiviral assay in MT-4 cells (HIV MT-4 antiviral assay); format: cell-based; conditions: Human immunodeficiency virus 1, IIIB, MT4, 120 h, HIV-1 (IIIB) in MT-4 cells, 5 days incubation; read-out: EC50
Outline: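 MT-4 cells infected with HIV-1 IIIB (1:250 diluted stock) and exposed to 1:3 serially diluted compound in RPMI with 10% FBS. Viability read by CellTiter-Glo luminescence after 5 days at 37° C; mock-infected cells and 5 μM AZT as controls.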

[1] = Cytotoxicity assay in MT-4 cells; format: cell-based, human; conditions: human, uninfected MT-4 cells, 5 days incubation; read-out: CC50
Outline: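 Infected MT-4 cells (HIV-1 IIIB, fresh 1:250 dilution of concentrated stock) or mock-infected cells exposed to compounds for 5 days at 37 °C. Viability by CellTiter-Glo luminescence; 5 μM AZT positive control, no-drug negative control. Uninfected cells used for cytotoxicity, with 10 μM puromycin as base-level cytotoxicity control.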

[2] = read-out: Antiviral Serum Shift RLuc 50% HS, HS/CCM (RPMI media, 10% FBS, 50% HS, 1% P/S), 72-h incubation
[3] = read-out: Antiviral Serum Shift RLuc CCM, CCM (RPMI media, 10% FBS, 1% P/S), 72-h incubation

Compound | EC50 (pLai RLuc reporter virus; [2]) [nM] | EC50 (pLai RLuc reporter virus; [3]) [nM] | EC50 (HIV-1 (IIIB)) [nM] | CC50 at 5 days [1] [nM]
O=C(NCc1ccc(F)c(Cl)c1F)c1cn2c(c(O)c1=O)C(=O)N1Cc3cc(F)c(F)cc3C[C@@H]2C1 [Example 139-1, (6R)—N-(3-chloro-2,4-difluorobenzyl)-9,10-difluoro-1-hydroxy-2,14-dioxo-2,7,12,14-tetrahydro-6H-6,13-methanobenzo[f]pyrido[1,2-a][1,4]diazonine-3-carboxamide] | 84.3 | 3.93 | 14.8 | > 50000
O=C(NCc1c(F)cc(F)cc1F)c1cn2c(c(O)c1=O)C(=O)N1CCC=C[C@@H]2C1 [Example 109-1, (7R)-12-hydroxy-1,11-dioxo-N-(2,4,6-trifluorobenzyl)-1,4,7,11-tetrahydro-3H-2,7-methanopyrido[1,2-a][1,4]diazonine-10-carboxamide] | 50.8 | 0.527 | 1.81 | 11300
O=C(NCc1ccc(F)cc1F)c1cn2c(c(O)c1=O)C(=O)N1CCCCC2C1 (racemic) [Example 25, N-(2,4-difluorobenzyl)-12-hydroxy-1,11-dioxo-1,4,5,6,7,11-hexahydro-3H-2,7-methanopyrido[1,2-a][1,4]diazonine-10-carboxamide] | 1.92 | 0.191 | 1.7 | 12600
C[C@@H]1CC[C@@H](C)N2C[C@H]1n1cc(C(=O)NCc3c(F)cc(F)cc3F)c(=O)c(O)c1C2=O [Example 151-2, (3R,6R,7S)-12-hydroxy-3,6-dimethyl-1,11-dioxo-N-(2,4,6-trifluorobenzyl)-1,4,5,6,7,11-hexahydro-3H-2,7-methanopyrido[1,2-a][1,4]diazonine-10-carboxamide] | 7.22 | 0.44 | 1.75 | 7200
O=C(NCc1ccc(F)cc1F)c1cn2c(c(O)c1=O)C(=O)N1CCCCC[C@@H]2C1 [Example 5-1, (8R)-N-(2,4-difluorobenzyl)-13-hydroxy-1,12-dioxo-1,3,4,5,6,7,8,12-octahydro-2,8-methanopyrido[1,2-a][1,4]diazecine-11-carboxamide] | 1.24 | 0.235 | 2 | 11100
O=C(NCc1c(F)cc(F)cc1F)c1cn2c(c(O)c1=O)C(=O)N1CC=CC[C@H]2C1 [Example 101, (7S)-12-hydroxy-1,11-dioxo-N-(2,4,6-trifluorobenzyl)-1,6,7,11-tetrahydro-3H-2,7-methanopyrido[1,2-a][1,4]diazonine-10-carboxamide] | 1.62 | 0.22 | 1.52 | 19500
O=C(NCc1c(F)cc(F)cc1F)c1cn2c(c(O)c1=O)C(=O)N1CCCC[C@@H]2C1 [Example 26-1, (7R)-12-hydroxy-1,11-dioxo-N-(2,4,6-trifluorobenzyl)-1,4,5,6,7,11-hexahydro-3H-2,7-methanopyrido[1,2-a][1,4]diazonine-10-carboxamide] | 33.4 | 0.354 | 1.4 | 15900
O=C(NCc1ccc(F)c(Cl)c1F)c1cn2c(c(O)c1=O)C(=O)N1CCC=C(F)[C@@H]2C1 (single isomer, unassigned) [Example 123-2] | 440 | 0.245 | 1.93 | 14600
O=C(NCc1ccc(F)cc1F)c1cn2c(c(O)c1=O)C(=O)N1C[C@@H]2CCC(F)(F)C1 [Example 4-2, (7S)-N-(2,4-difluorobenzyl)-4,4-difluoro-12-hydroxy-1,11-dioxo-1,4,5,6,7,11-hexahydro-3H-2,7-methanopyrido[1,2-a][1,4]diazonine-10-carboxamide] | 4.36 | 1.11 | 4.8 | 10700
O=C(NCc1ccc(F)cc1F)c1cn2c(c(O)c1=O)C(=O)N1CCCC(F)(F)[C@@H]2C1 [Example 16-1, (7S)-N-(2,4-difluorobenzyl)-6,6-difluoro-12-hydroxy-1,11-dioxo-1,4,5,6,7,11-hexahydro-3H-2,7-methanopyrido[1,2-a][1,4]diazonine-10-carboxamide] | 3.22 | 0.25 | 2.1 | 14400
O=C(NCc1c(F)cc(F)cc1F)c1cn2c(c(O)c1=O)C(=O)N1C[C@H]3CC[C@H](C3)[C@H]2C1 [Example 41-1, (4S,7R,8S)-13-hydroxy-1,12-dioxo-N-(2,4,6-trifluorobenzyl)-1,3,4,5,6,7,8,12-octahydro-2,8:4,7-dimethanopyrido[1,2-a][1,4]diazecine-11-carboxamide] | 6.64 | 0.335 | 1.6 | 15600
O=C(NCc1c(F)cc(F)cc1F)c1cn2c(c(O)c1=O)C(=O)N1Cc3cc(F)ccc3C[C@H]2C1 [Example 145, (6S)-10-fluoro-1-hydroxy-2,14-dioxo-N-(2,4,6-trifluorobenzyl)-2,7,12,14-tetrahydro-6H-6,13-methanobenzo[f]pyrido[1,2-a][1,4]diazonine-3-carboxamide] | 0.92 | 0.218 | 0.822 | 8850
C[C@H]1CC[C@H]2CN(C1)C(=O)c1c(O)c(=O)c(C(=O)NCc3c(F)cc(F)cc3F)cn12 [Example 137-1, (4S,7S)-12-hydroxy-4-methyl-1,11-dioxo-N-(2,4,6-trifluorobenzyl)-1,4,5,6,7,11-hexahydro-3H-2,7-methanopyrido[1,2-a][1,4]diazonine-10-carboxamide] | 0.707 | 0.184 | 2.63 | 14700
C[C@H]1CCC[C@H]2CN1C(=O)c1c(O)c(=O)c(C(=O)NCc3ccc(F)cc3F)cn12 [Example 52-4, (3S, 7S)—N-(2,4-difluorobenzyl)-12-hydroxy-3-methyl-1,11-dioxo-1,4,5,6,7,11-hexahydro-3H-2,7-methanopyrido[1,2-a][1,4]diazonine-10-carboxamide] | 7.54 | 0.218 | 1.33 | 10300
C[C@]1(O)CCCN2C[C@H]1n1cc(C(=O)NCc3ccc(F)cc3F)c(=O)c(O)c1C2=O [Example 14-1, (6S,7R)—N-(2,4-difluorobenzyl)-6,12-dihydroxy-6-methyl-1,11-dioxo-1,4,5,6,7,11-hexahydro-3H-2,7-methanopyrido[1,2-a][1,4]diazonine-10-carboxamide] | 1.88 | 0.79 | 3 | 22200
O=C(NCc1ccc(F)cc1F)c1cn2c(c(O)c1=O)C(=O)N1CCCC(F)[C@H]2C1 (stereo partly drawn) [Example 172-2, (7R)—N-(2,4-difluorobenzyl)-6-fluoro-12-hydroxy-1,11-dioxo-1,4,5,6,7,11-hexahydro-3H-2,7-methanopyrido[1,2-a][1,4]diazonine-10-carboxamide] | 2.62 | 0.417 | 1.47 | 12800
O=C(NCc1c(F)cc(F)cc1F)c1cn2c(c(O)c1=O)C(=O)N1CCc3cc(Cl)ccc3[C@@H]2C1 [Example 136-2, (13R)-10-chloro-4-hydroxy-3,5-dioxo-N-(2,4,6-trifluorobenzyl)-3,5,8,13-tetrahydro-7H-6,13-methanobenzo[g]pyrido[1,2-a][1,4]diazonine-2-carboxamide] | 5.71 | 0.392 | 1.55 | 6550
O=C(NCc1ccc(F)cc1F)c1cn2c(c(O)c1=O)C(=O)N1CC/C=C\C[C@H]2C1 [Example 44-2, (8S,Z)—N-(2,4-difluorobenzyl)-13-hydroxy-1,12-dioxo-1,3,4,7,8,12-hexahydro-2,8-methanopyrido[1,2-a][1,4]diazecine-11-carboxamide] | 36.8 | 0.264 | 2.36 | 15100
O=C(NCc1ccc(F)c(Cl)c1F)c1cn2c(c(O)c1=O)C(=O)N1CC=CC[C@H]2C1 [Example 58, (7S)—N-(3-chloro-2,4-difluorobenzyl)-12-hydroxy-1,11-dioxo-1,6,7,11-tetrahydro-3H-2,7-methanopyrido[1,2-a][1,4]diazonine-10-carboxamide] | 1.67 | 0.25 | 0.986 | 4150
C[C@@H]1CC[C@H](C)N2C[C@H]1n1cc(C(=O)NCc3ccc(F)cc3F)c(=O)c(O)c1C2=O [Example 175, (3S,6R,7S)—N-(2,4-difluorobenzyl)-12-hydroxy-3,6-dimethyl-1,11-dioxo-1,4,5,6,7,11-hexahydro-3H-2,7-methanopyrido[1,2-a][1,4]diazonine-10-carboxamide] | 20.9 | 0.412 | 1.29 | 7740
